Assay results: patent US20110294810A1, “SUBSTITUTED (PYRIDYL)-AZINYLAMINE DERIVATIVES AS PLANT PROTECTION AGENTS” (priority 2008, published 2011)
Read-outs that look alike come from different tables or passages of the source.

Columns and labels:
Puccinia recondita = experiment: In vivo test on Puccinia recondita (brown rust), wheat plants; settings: 500 ppm, wheat plants sprayed 24 hours before contamination, grading 10 days after contamination
Method: Wheat plants (Scipion variety) sown on 50/50 peat soil-pozzolana substrate in starter cups and grown at 12° C., are treated at the 1-leaf stage (10 cm tall) by spraying with the aqueous suspension described above. Plants, used as controls, are treated with an aqueous solution not containing the active material. After 24 hours, the plants are contaminated by spraying the leaves with an aqueous suspension of Puccinia recondita spores (100,000 spores per ml). […] The contaminated wheat plants are incubated for 24 hours at 20° C. and at 100% relative humidity, and then for 10 days at 20° C. and at 70% relative humidity. Grading is carried out 10 days after the contamination, in comparison with the control plants. Under these conditions, good (at least 70%) or total protection is observed at a dose of 500 ppm with the following compound: A4

[1] = Measurement of logP values by HPLC on reversed phase columns (EEC directive 79/831 Annex V.A8); type: physicochemical; settings: for chromatographic logP: reversed phase HPLC column
Phakopsora pachyrhizi = experiment: Phakopsora test (soybeans) / protective; type: in vivo; settings: 500 ppm of active ingredient, evaluated 11 days after inoculation
Method: Solvent: 28.5 parts by weight of acetone Emulsifier: 1.5 parts by weight of polyoxyethylene alkyl phenyl ether
To produce a suitable preparation of active compound, 1 part by weight of active compound is mixed with the stated amounts of solvent and emulsifier, and the concentrate is diluted with water to the desired concentration.
To test for protective activity, young plants are sprayed with the preparation of active compound at the stated rate of application. One day after spraying, the plants are inoculated with an aqueous spore suspension of the causal agent of soybean rust (Phakopsora pachyrhizi). The plants are then placed in a greenhouse at approximately 20° C. and a relative atmospheric humidity of approximately 80%.
The test is evaluated 11 days after the inoculation. 0% means an efficacy which corresponds to that of the control, while an efficacy of 100% means that no disease is observed.

Pyricularia oryzae = type: in vivo; settings: 250 ppm of active ingredient, rice, protective, evaluated 5 days after inoculation
Cochliobolus miyabeanus = experiment: Cochliobolus test (rice) / protective; type: in vivo; settings: 250 ppm of active ingredient, evaluated 4 days after inoculation
Peronospora parasitica = experiment: In vivo test on Peronospora parasitica (crucifer downy mildew), cabbage plants; settings: 500 ppm, cabbage plants sprayed 24 hours before contamination, grading 5 days after contamination
Method: Cabbage plants (Eminence variety) in starter cups, sown on a 50/50 peat soil-pozzolana substrate and grown at 18-20° C., are treated at the cotyledon stage by spraying with the aqueous suspension described above. Plants, used as controls, are treated with an aqueous solution not containing the active material. After 24 hours, the plants are contaminated by spraying them with an aqueous suspension of Peronospora parasitica spores (50 000 spores per ml). The spores are collected from infected plant. The contaminated cabbage plants are incubated for 5 days at 20° C., under a humid atmosphere. Grading is carried out 5 days after the contamination, in comparison with the control plants. Under these conditions, good (at least 70%) or total protection is observed at a dose of 500 ppm with the following compound: C2

[2] = HPLC on reversed phase columns, usually LC-MS at pH 2.7 with 0.1% formic acid in water and acetonitrile, linear gradient 10% to 95% acetonitrile

With `CC(=O)NCc1cc(-c2ccnc(Nc3cccc(Cl)c3)n2)ccn1` [Compound A4] the “protection (good, at least 70%, or total)” value (Puccinia recondita) was “at least 70%” and the log p ([1]; pH 2.7) was 2.03.

`OCc1cc(-c2ccnc(Nc3cccc(Cl)c3)n2)ccn1` [Compound A14, (4-{2-[(3-chlorophenyl)amino]pyrimidin-4-yl}pyridin-2-yl)methanol] gave a chromatographic logP ([1]; HPLC on reversed phase columns, usually LC-MS at pH 2.7 with 0.1% formic acid in water and acetonitrile, linear gradient 10% to 95% acetonitrile, read-out: log p) of 1.91 and an efficacy (Phakopsora pachyrhizi) of no less than 80%.

Work on `CC(N)c1cc(-c2ncnc(Nc3cccc(Cl)c3)n2)ccn1` (stereo not shown) [Compound C2, 4-[2-(1-aminoethyl)pyridin-4-yl]-N-(3-chlorophenyl)-1,3,5-triazin-2-amine] yielded an efficacy (Pyricularia oryzae) of no less than 80%, a chromatographic logP ([1]; LC-MS at pH 7.8, 0.001 molar ammonium hydrogen carbonate in water, gradient 10% to 95% acetonitrile, read-out: log p [c]) of 1.81 and an efficacy (Cochliobolus miyabeanus) of no less than 80%. The “protection (good, at least 70%, or total)” value (Peronospora parasitica) was “at least 70%”.

Work on `CCCCC(=O)OCc1cc(-c2ccnc(Nc3cccc(Cl)c3)n2)ccn1` [Example A23] yielded a log p ([1]; pH 2.7) of 4.29.

Compound `CC(C)(C)C(=O)OCc1cc(-c2ccnc(Nc3cccc(Cl)c3)n2)ccn1` [Example A24] has a log p ([1]; pH 2.7) of 4.31.

For `CC(C)CC(=O)OCc1cc(-c2ccnc(N(C(=O)CC(C)C)c3cccc(Cl)c3)n2)ccn1` [Example A27], the log p ([1]; pH 2.7) was 4.56.

With `CCC(=O)OCc1cc(-c2ccnc(N(C(=O)CC)c3cccc(Cl)c3)n2)ccn1` [Example A28] the log p ([1]; pH 2.7) was 3.11.

`CCCCC(=O)OCc1cc(-c2ccnc(N(C(=O)CCCC)c3cccc(Cl)c3)n2)ccn1` [Example A29] gave a log p ([1]; pH 2.7) of 4.65.

Work on `CC(C)(C)C(=O)OCc1cc(-c2ccnc(N(C(=O)C(C)(C)C)c3cccc(Cl)c3)n2)ccn1` [Example A30] yielded a log p ([1]; pH 2.7) of 4.7.

For `CC(C)C(=O)OCc1cc(-c2ccnc(N(C(=O)C(C)C)c3cccc(Cl)c3)n2)ccn1` [Example A32], the log p ([1]; pH 2.7) was 3.83.

In the case of `COCCC(=O)OCc1cc(-c2ccnc(Nc3cccc(Cl)c3)n2)ccn1` [Example A34], the log p ([1]; pH 2.7) is reported as 3.13.

For `O=C(OCc1cc(-c2ccnc(N(C(=O)C3CCCC3)c3cccc(Cl)c3)n2)ccn1)C1CCCC1` [Example A35], the log p ([1]; pH 2.7) was 4.86.

Compound `C#CCN(C)Cc1cc(-c2ccnc(Nc3cccc(Cl)c3)n2)ccn1` [Example A39] has a log p [1, 2] of 1.75.

For `CN(Cc1cc(-c2ccnc(Nc3cccc(Cl)c3)n2)ccn1)CC1CC1` [Example A40], the log p [1, 2] was 1.84.

In the case of `CC(C)N(C)Cc1cc(-c2ccnc(Nc3cccc(Cl)c3)n2)ccn1` [Example A42], the log p ([1]; pH 2.7) is reported as 1.79.

Work on `CN(Cc1cc(-c2ccnc(Nc3cccc(Cl)c3)n2)ccn1)C(C)(C)C` [Example A43] yielded a log p ([1]; pH 2.7) of 1.84.

For `Clc1cccc(Nc2nccc(-c3ccnc(CN4CCCC4)c3)n2)c1` [Example A47], the log p [1, 2] was 1.7.

For `CC1CC(C)CN(Cc2cc(-c3ccnc(Nc4cccc(Cl)c4)n3)ccn2)C1` (stereo not shown) [Example A48], the log p ([1]; pH 2.7) was 2.1.

With `Clc1cccc(Nc2nccc(-c3ccnc(CN4CCOCC4)c3)n2)c1` [Example A50] the log p ([1]; pH 2.7) was 1.6.

`CN1CCN(Cc2cc(-c3ccnc(Nc4cccc(Cl)c4)n3)ccn2)CC1` [Example A54] gave a log p ([1]; pH 2.7) of 1.45.

Compound `Clc1cccc(Nc2nccc(-c3ccnc(CN4CCSCC4)c3)n2)c1` [Example A55] has a log p ([1]; pH 2.7) of 1.78.

In the case of `CN(C)C1CCN(Cc2cc(-c3ccnc(Nc4cccc(Cl)c4)n3)ccn2)CC1` [Example A56], the log p [1, 2] is reported as 1.1.

In the case of `CCOC(=O)C1CCCN(Cc2cc(-c3ccnc(Nc4cccc(Cl)c4)n3)ccn2)C1` (stereo not shown) [Example A57], the log p [1, 2] is reported as 1.98.

With `COCC1CCCN1Cc1cc(-c2ccnc(Nc3cccc(Cl)c3)n2)ccn1` (stereo not shown) [Example A62] the log p ([1]; pH 2.7) was 1.82.

`CCSCCNCc1cc(-c2ccnc(Nc3cccc(Cl)c3)n2)ccn1` [Example A66] gave a log p ([1]; pH 2.7) of 2.1.

With `CSCc1cc(-c2ccnc(Nc3cccc(Cl)c3)n2)ccn1` [Example A67] the log p [1, 2] was 3.17.

`Clc1cccc(Nc2nccc(-c3ccnc(CI)c3)n2)c1` [Example A68] gave a log p ([1]; pH 2.7) of 3.73.

`CCCCCSCc1cc(-c2ccnc(Nc3cccc(Cl)c3)n2)ccn1` [Example A74] showed a log p ([1]; pH 2.7) of 5.08.

Compound `C=CCSCc1cc(-c2ccnc(Nc3cccc(Cl)c3)n2)ccn1` [Example A75] has a log p ([1]; pH 2.7) of 3.8.

For `CC(C)(C)CCSCc1cc(-c2ccnc(Nc3cccc(Cl)c3)n2)ccn1` [Example A78], the log p ([1]; pH 2.7) was 5.34.

With `FC(F)(F)CSCc1cc(-c2ccnc(Nc3cccc(Cl)c3)n2)ccn1` [Example A79] the log p ([1]; pH 2.7) was 4.01.

With `CN(C)CCSCc1cc(-c2ccnc(Nc3cccc(Cl)c3)n2)ccn1` [Example A82] the log p ([1]; pH 2.7) was 1.75.

In the case of `CCOC(=O)CCSCc1cc(-c2ccnc(Nc3cccc(Cl)c3)n2)ccn1` [Example A85], the log p ([1]; pH 2.7) is reported as 3.67.

In the case of `CC(C)CCSCc1cc(-c2ccnc(Nc3cccc(Cl)c3)n2)ccn1` [Example A86], the log p ([1]; pH 2.7) is reported as 4.97.

Compound `CCOCCNCc1cc(-c2ccnc(Nc3cccc(Cl)c3)n2)ccn1` [Example A95] has a log p ([1]; pH 2.7) of 1.84.
